Source: paper PMC8857453 (Biotechnology Reports, 2022)
Where two headings read alike, the source gives them in different places.

What was measured:
Aps-t [1] = test system: Aps-t
Aps-t [2] = conditions: 50 mM MES pH 6, 100 mM NaCl, 1 mM MgCl2, 37 °C; pNPP stock in 0.1 M sodium acetate pH 4.5

Compound `Nc1ncnc2c1ncn2[C@@H]1O[C@H](COP(=O)(O)OP(=O)(O)O)[C@@H](O)[C@H]1O` [ADP] has a Km (Aps-t [1]) of 190 ± 10 µM.

Compound `Nc1ncnc2c1ncn2[C@@H]1O[C@H](COP(=O)(O)O)[C@@H](O)[C@H]1O` [AMP] has a Km (Aps-t [1]) of 270 ± 20 µM.

Compound `Nc1ncnc2c1ncn2[C@@H]1O[C@H](COP(=O)(O)OP(=O)(O)OP(=O)(O)O)[C@@H](O)[C@H]1O` [ATP] has a Km (Aps-t [1]) of 1000 ± 120 µM.

In the case of `O=[N+]([O-])c1ccc(OP(=O)(O)O)cc1` [pNPP], the Km (Aps-t [2]) is reported as 94 ± 14 µM.
